Experimental data reported in patent US10770169B2, “Method of providing a treatment to a subject based on a dynamic pathway map” (THE REGENTS OF THE UNIVERSITY OF CALIFORNIA, priority 2010, dated 2020).

System: panel of 55 breast cancer cell lines
Assay: Cell growth inhibition assay (Cell Titer Glo, 72 h, 9 doses; GI50, TGI, LC50)
Format: cell-based, human
Conditions: value is the negative log10 of mol/L

## Oxamflatin
AU565 cell line, censored GI50 values
  GI50: 6.19
BT474 cell line, censored GI50 values
  GI50: 6.57
BT483 cell line, censored GI50 values
  GI50: 6.15
CAMA1 cell line, censored GI50 values
  GI50: 6.27
HCC1143 cell line, censored GI50 values
  GI50: 6.28
HCC1187 cell line, censored GI50 values
  GI50: 6.19
HCC1395 cell line, censored GI50 values
  GI50: 5.64
HCC1419 cell line, censored GI50 values
  GI50: 5.88
HCC1428 cell line, censored GI50 values
  GI50: 6.33
HCC1500 cell line, censored GI50 values
  GI50: 5.98
HCC1806 cell line, censored GI50 values
  GI50: 6.16
HCC1937 cell line, censored GI50 values
  GI50: 5.84
HCC1954 cell line, censored GI50 values
  GI50: 5.81
Cell line AU565
  GI50: 6.19
Cell line BT474
  GI50: 6.57
Cell line BT483
  GI50: 6.15
Cell line CAMA1
  GI50: 6.27
Cell line HCC38
  GI50: 6.77
Cell line HCC70
  GI50: 6.35
Cell line HCC1143
  GI50: 6.28
Cell line HCC1187
  GI50: 6.19
Cell line HCC1395
  GI50: 5.64
Cell line HCC1419
  GI50: 5.88
Cell line HCC1428
  GI50: 6.33
Cell line HCC1500
  GI50: 5.98
Cell line HCC1806
  GI50: 6.16
Cell line HCC1937
  GI50: 5.84
Cell line HCC1954
  GI50: 5.81
Cell line HCC2185
  GI50: 6.46
Cell line HCC3153
  GI50: 5.82
Cell line LY2
  GI50: 5.88
Cell line MDAMB134V
  GI50: 6.18
Cell line MDAMB175V
  GI50: 5.41
Cell line MDAMB361
  GI50: 6.15
Cell line MDAMB415
  GI50: 6.14
Cell line MDAMB453
  GI50: 6.56
Cell line MDAMB468
  GI50: 5.57
Cell line SKBR3
  GI50: 5.96
Cell line SUM52PE
  GI50: 6.22
Cell line SUM149PT
  GI50: 6.17
Cell line SUM159PT
  GI50: 6.50
Cell line SUM185PE
  GI50: 6.51
Cell line SUM225CWN
  GI50: 6.07
Cell line SUM1315MO
  GI50: 5.64
Cell line T47D
  GI50: 6.06
Cell line UACC812
  GI50: 5.71
Cell line ZR75B
  GI50: 6.41
